Reference: publication PMC6001238, “Iterative Chemical Engineering of Vancomycin Leads to Novel Vancomycin Analogs With a High in Vitro Therapeutic Index” (Frontiers in Microbiology, 2018)
Values after ≈ are worked out from the molar mass of the structure shown.

Experiments:
E. faecalis VSE 1 = experiment: MIC, broth microdilution, vancomycin-sensitive E. faecalis (VSE 1); assay type: cell-based, Enterococcus faecalis; conditions: for MIC: Enterococcus faecalis VSE 1 (vancomycin-sensitive), read-out: MIC; for MIC-fold improvement vs. vancomycin: VSE 1, ratio of MIC of vancomycin and MIC of analogue
Protocol: (§1) The minimum inhibitory concentration (MIC) was determined using the broth microdilution method according to the antimicrobial susceptibility testing standards of the clinical and laboratory standards institute ([Clinical and Laboratory Standards Institute [CLSI], 2012]). Ultrapure water and non-inoculated broth were used as controls. In one case, a final concentration of 10 μM vancomycin was included with the vancomycin analog or control antibiotic.

E. faecalis VRE 6 = experiment: MIC, broth microdilution, vancomycin-resistant E. faecalis VRE 6 (VanA); assay type: cell-based, Enterococcus faecalis; conditions: for MIC: Enterococcus faecalis VRE 6 (vancomycin-resistant), read-out: MIC; for MIC-fold improvement vs. vancomycin: VRE 6, ratio of MIC of vancomycin and MIC of analogue
Protocol: as §1

E. faecalis VRE 53 = experiment: MIC, broth microdilution, vancomycin-resistant E. faecalis VRE 53 (VanA); assay type: cell-based, Enterococcus faecalis; conditions: for MIC: Enterococcus faecalis VRE 53 (vancomycin-resistant), read-out: MIC; for MIC-fold improvement vs. vancomycin: VRE 53, ratio of MIC of vancomycin and MIC of analogue
Protocol: as §1

E. faecalis VRE 29 = experiment: MIC, broth microdilution, vancomycin-resistant E. faecalis VRE 29 (VanA); assay type: cell-based, Enterococcus faecalis; conditions: for MIC: Enterococcus faecalis VRE 29 (vancomycin-resistant), read-out: MIC; for MIC-fold improvement vs. vancomycin: VRE 29, ratio of MIC of vancomycin and MIC of analogue
Protocol: as §1

E. faecalis VRE 37 = experiment: MIC, broth microdilution, vancomycin-resistant E. faecalis VRE 37 (VanA); assay type: cell-based, Enterococcus faecalis; conditions: for MIC: Enterococcus faecalis VRE 37 (vancomycin-resistant), read-out: MIC; for MIC-fold improvement vs. vancomycin: VRE 37, ratio of MIC of vancomycin and MIC of analogue
Protocol: as §1

[1] = tested on: Murine leukemia (L1210) cells; experiment: Cytostatic activity, L1210 cell proliferation; assay type: cell-based; conditions: mean ± SD of three experiments; highest concentration tested 250 µM; 2 days; read-out: Toxicity (IC50) L1210
Protocol: (§2) Murine leukemia (L1210), human T-lymphocyte (CEM) and the human cervix carcinoma (HeLa) cell line were suspended at 300,000–500,000 cells/mL of culture medium, and 100 μL of a cell suspension was added to 100 μL of an appropriate dilution of the test compounds in wells of 96-well microtiter plates. After incubation at 37°C for 2 (L1210), 3 (CEM), or 4 (HeLa) days, the cell number was determined using a Coulter counter. The IC50 was defined per cell type as the compound concentration required to inhibit cell proliferation by 50% compared to the negative control ([Glowacka et al., 2017]).

[2] = tested on: human T-lymphocyte (CEM) cells; experiment: Cytostatic activity, CEM cell proliferation; assay type: cell-based; conditions: mean ± SD of three experiments; highest concentration tested 250 µM; 3 days; read-out: Toxicity (IC50) CEM
Protocol: as §2

[3] = tested on: human cervix carcinoma (HeLa) cells; experiment: Cytostatic activity, HeLa cell proliferation; assay type: cell-based; conditions: mean ± SD of three experiments; highest concentration tested 250 µM; 4 days; read-out: Toxicity (IC50) HeLa
Protocol: as §2

[4] = tested on: L1210, CEM and HeLa cell lines; experiment: Cytostatic activity, average or summary over L1210, CEM and HeLa; assay type: cell-based; conditions: average of L1210, CEM and HeLa; read-out: Toxicity (IC50) Average
Protocol: as §2

[5] = tested on: S. aureus VSSA (ATCC 6538); experiment: MIC, broth microdilution, vancomycin-sensitive S. aureus (VSSA/MSSA, ATCC 6538); assay type: cell-based, Staphylococcus aureus; conditions: for MIC: Staphylococcus aureus VSSA, read-out: MIC; for MIC-fold improvement vs. vancomycin: VSSA, ratio of MIC of vancomycin and MIC of analogue
Protocol: as §1

S. aureus VISA/HIP5827 = experiment: MIC, broth microdilution, vancomycin-intermediate S. aureus VISA HIP5827; assay type: cell-based, Staphylococcus aureus; conditions: for MIC: Staphylococcus aureus VISA/HIP5827, read-out: MIC; for MIC-fold improvement vs. vancomycin: VISA/HIP5827, ratio of MIC of vancomycin and MIC of analogue
Protocol: as §1

MRSA KS2 = experiment: MIC, broth microdilution, MRSA KS2; assay type: cell-based, Staphylococcus aureus
Protocol: as §1

MRSA KS6 = experiment: MIC, broth microdilution, MRSA KS6; assay type: cell-based, Staphylococcus aureus
Protocol: as §1

MRSA KS89 = experiment: MIC, broth microdilution, MRSA KS89; assay type: cell-based, Staphylococcus aureus; conditions: for MIC-fold improvement vs. vancomycin: MRSA KS8, ratio of MIC of vancomycin and MIC of analogue; for MIC: Staphylococcus aureus MRSA KS8, read-out: MIC
Protocol: as §1

MRSA KS1 = experiment: MIC, broth microdilution, MRSA KS1; assay type: cell-based, Staphylococcus aureus
Protocol: as §1

S. aureus VRSA = experiment: MIC, broth microdilution, vancomycin-resistant S. aureus (VRSA); assay type: cell-based, Staphylococcus aureus; conditions: for MIC: Staphylococcus aureus VRSA, read-out: MIC; for MIC-fold improvement vs. vancomycin: VRSA, ratio of MIC of vancomycin and MIC of analogue
Protocol: as §1

Compound | MIC (E. faecalis VSE 1) [µM] | MIC-fold improvement vs. vancomycin (E. faecalis VSE 1) | MIC (E. faecalis VRE 6) [µM] | MIC-fold improvement vs. vancomycin (E. faecalis VRE 6) | MIC (E. faecalis VRE 53) [µM] | MIC-fold improvement vs. vancomycin (E. faecalis VRE 53) | MIC (E. faecalis VRE 29) [µM] | MIC-fold improvement vs. vancomycin (E. faecalis VRE 29) | MIC (E. faecalis VRE 37) [µM] | IC50 [1] [µM] | IC50 [2] [µM] | IC50 [3] [µM] | IC50 [4] [µM] | MIC [5] [µM] | MIC-fold improvement vs. vancomycin [5] | MIC (S. aureus VISA/HIP5827) [µM] | MIC-fold improvement vs. vancomycin (S. aureus VISA/HIP5827) | MIC-fold improvement vs. vancomycin (MRSA KS89) | MIC (MRSA KS89) [µM] | MIC-fold improvement vs. vancomycin (E. faecalis VRE 37) | also measured
CN[C@H](CC(C)C)C(=O)N[C@H]1C(=O)N[C@@H](CC(N)=O)C(=O)N[C@H]2C(=O)N[C@H]3C(=O)N[C@H](C(=O)N[C@H](C(=O)NCCNC(=O)/C=C/c4ccc(OC)cc4)c4cc(O)cc(O)c4-c4cc3ccc4O)[C@H](O)c3ccc(c(Cl)c3)Oc3cc2cc(c3O[C@@H]2O[C@H](CO)[C@@H](O)[C@H](O)[C@H]2O[C@H]2C[C@](C)(N)[C@H](O)[C@H](C)O2)Oc2ccc(cc2Cl)[C@H]1O [Vanc-36] | 0.39 (≈ 0.644 µg/mL) | 4 | 1.56 (≈ 2.58 µg/mL) | 128 | 50 (≈ 82.6 µg/mL) | 8 | 12.5 (≈ 20.6 µg/mL) | 32 | 12.5 (≈ 20.6 µg/mL) | > 250 | > 250 | 89 ± 18 | 196 | 0.39 (≈ 0.644 µg/mL) | 2 | 0.39 (≈ 0.644 µg/mL) | 16 | 1 | 0.78 (≈ 1.29 µg/mL) | – | MIC-fold improvement vs. vancomycin (MRSA KS2; MRSA KS2, ratio of MIC of vancomycin and MIC of analogue): 2; MIC (MRSA KS2; Staphylococcus aureus MRSA KS2, read-out: MIC): 0.39 µM (≈ 0.644 µg/mL); MIC-fold improvement vs. vancomycin (MRSA KS6; MRSA KS6, ratio of MIC of vancomycin and MIC of analogue): 2; MIC (MRSA KS6; Staphylococcus aureus MRSA KS6, read-out: MIC): 0.39 µM (≈ 0.644 µg/mL); MIC-fold improvement vs. vancomycin (MRSA KS1; MRSA KS1, ratio of MIC of vancomycin and MIC of analogue): 1; MIC (MRSA KS1; Staphylococcus aureus MRSA KS1, read-out: MIC): 0.78 µM (≈ 1.29 µg/mL)
CCCC#Cc1ccc(NC(=O)CNC(=O)C2NC(=O)C3NC(=O)C(NC(=O)C4NC(=O)C(CC(N)=O)NC(=O)C(NC(=O)C(CC(C)C)NC)C(O)c5ccc(c(Cl)c5)Oc5cc4cc(c5OC4OC(CO)C(O)C(O)C4OC4CC(C)(N)C(O)C(C)O4)Oc4ccc(cc4Cl)C3O)c3ccc(O)c(c3)-c3c(O)cc(O)cc32)cc1 (stereo not shown) [Vanc-68] | 0.78 (≈ 1.29 µg/mL) | 2 | 3.13 (≈ 5.16 µg/mL) | 64 | 3.13 (≈ 5.16 µg/mL) | 128 | 3.13 (≈ 5.16 µg/mL) | 128 | 3.13 (≈ 5.16 µg/mL) | 42 ± 14 | 19 ± 1 | 55 ± 20 | 39 | 0.78 (≈ 1.29 µg/mL) | 1 | 0.39 (≈ 0.643 µg/mL) | 16 | – | – | 128 | MIC (S. aureus VRSA): 1.56 µM (≈ 2.57 µg/mL); MIC-fold improvement vs. vancomycin (S. aureus VRSA): 64
CNC(CC(C)C)C(=O)NC1C(=O)NC(CC(N)=O)C(=O)NC2C(=O)NC3C(=O)NC(C(=O)NC(C(=O)NCC(=O)Nc4ccc(-c5cnnn5C5OC(COC(C)=O)C(OC(C)=O)C(OC(C)=O)C5OC(C)=O)cc4)c4cc(O)cc(O)c4-c4cc3ccc4O)C(O)c3ccc(c(Cl)c3)Oc3cc2cc(c3OC2OC(CO)C(O)C(O)C2OC2CC(C)(N)C(O)C(C)O2)Oc2ccc(cc2Cl)C1O (stereo not shown) [Vanc-78] | 0.78 (≈ 1.54 µg/mL) | 2 | 3.13 (≈ 6.19 µg/mL) | 64 | 50 (≈ 98.9 µg/mL) | 8 | 50 (≈ 98.9 µg/mL) | 8 | 50 (≈ 98.9 µg/mL) | > 250 | > 250 | 57 ± 32 | 186 | 0.78 (≈ 1.54 µg/mL) | 1 | 3.13 (≈ 6.19 µg/mL) | 2 | 1 | 0.78 (≈ 1.54 µg/mL) | 8 | MIC (S. aureus VRSA): 3.13 µM (≈ 6.19 µg/mL); MIC-fold improvement vs. vancomycin (S. aureus VRSA): 32
CCCCC[N+](C)(C)CCCNC(=O)c1ccc(NC(=O)CNC(=O)C2NC(=O)C3NC(=O)C(NC(=O)C4NC(=O)C(CC(N)=O)NC(=O)C(NC(=O)C(CC(C)C)NC)C(O)c5ccc(c(Cl)c5)Oc5cc4cc(c5OC4OC(CO)C(O)C(O)C4OC4CC(C)(N)C(O)C(C)O4)Oc4ccc(cc4Cl)C3O)c3ccc(O)c(c3)-c3c(O)cc(O)cc32)cc1 (stereo not shown) [Vanc-80] | 1.56 | 1 | 6.25 | 32 | 50 | 8 | 50 | 8 | 50 | 230 ± 3 | > 250 | 238 | 239 | 0.78 | 1 | 6.25 | 1 | 1 | 0.78 | 8 | MIC (S. aureus VRSA): 1.56 µM; MIC-fold improvement vs. vancomycin (S. aureus VRSA): 64
CCCCCCCC[N+](C)(C)CCCNC(=O)c1ccc(NC(=O)CNC(=O)C2NC(=O)C3NC(=O)C(NC(=O)C4NC(=O)C(CC(N)=O)NC(=O)C(NC(=O)C(CC(C)C)NC)C(O)c5ccc(c(Cl)c5)Oc5cc4cc(c5OC4OC(CO)C(O)C(O)C4OC4CC(C)(N)C(O)C(C)O4)Oc4ccc(cc4Cl)C3O)c3ccc(O)c(c3)-c3c(O)cc(O)cc32)cc1 (stereo not shown) [Vanc-81] | 0.78 | 2 | ≤0.39 | >512 | 25 | 16 | 25 | 16 | 25 | 164 ± 6 | > 250 | 122 ± 13 | 179 | 0.39 | 2 | 6.25 | 1 | 4 | 0.20 | 16 | MIC (S. aureus VRSA): 0.78 µM; MIC-fold improvement vs. vancomycin (S. aureus VRSA): 128
CNC(CC(C)C)C(=O)NC1C(=O)NC(CC(N)=O)C(=O)NC2C(=O)NC3C(=O)NC(C(=O)NC(C(=O)NCC(=O)Nc4ccc(C(=O)NCCCN(C)C)cc4)c4cc(O)cc(O)c4-c4cc3ccc4O)C(O)c3ccc(c(Cl)c3)Oc3cc2cc(c3OC2OC(CO)C(O)C(O)C2OC2CC(C)(N)C(O)C(C)O2)Oc2ccc(cc2Cl)C1O (stereo not shown) [Vanc-82] | 1.56 (≈ 2.67 µg/mL) | 1 | 6.25 (≈ 10.7 µg/mL) | 32 | 50 (≈ 85.5 µg/mL) | 8 | >50 | <8 | >50 | > 250 | > 250 | > 250 | > 250 | 1.56 (≈ 2.67 µg/mL) | 0.5 | >12.5 | <0.5 | 1 | 0.78 (≈ 1.33 µg/mL) | <8 | MIC (S. aureus VRSA): 3.13 µM (≈ 5.35 µg/mL); MIC-fold improvement vs. vancomycin (S. aureus VRSA): 32
